Starred links: 1 amine or outer side, 2 acyl side, 3 side chain; linkers in the order of their positions; H or OH if unused. Non-standard residues stand in square brackets, D forms with d. Residues, ends and D or L forms follow the SMILES beside them. Phe(4-(5-CO2H-2-pyrimidyl)) = N[C@@H](Cc1ccc(-c2ncc(C(=O)O)cn2)cc1)C(=O)O; Phe(4-(4-Ac-piperazinyl)) = CC(=O)N1CCN(c2ccc(C[C@H](N)C(=O)O)cc2)CC1; dPro(4R-(4-pyridylmethyl)) = O=C(O)[C@H]1C[C@@H](Cc2ccncc2)CN1; Ala(piperidin-4-yl) = O=C([C@H](CC1CCN([*:3])CC1)N[*:1])[*:2]; Trp(βS-Me,4-F) = C[C@@H](c1c[nH]c2cccc(F)c12)[C@H](N)C(=O)O; Bip(4'-COOH) = N[C@@H](Cc1ccc(-c2ccc(C(=O)O)cc2)cc1)C(=O)O; Ala(1-bicyclo(1.1.1)pentyl) = N[C@@H](CC12CC(C1)C2)C(=O)O; dPro(4R-Bzl(4-F)) = O=C(O)[C@H]1C[C@@H](Cc2ccc(F)cc2)CN1; Ala(morpholin-4-yl) = N[C@@H](CN1CCOCC1)C(=O)O; Ala(pyrimidin-5-yl) = N[C@@H](Cc1cncnc1)C(=O)O; Phe(4-COOH) = N[C@@H](Cc1ccc(C(=O)O)cc1)C(=O)O; Pro(cis-4-F) = O=C(O)[C@@H]1C[C@H](F)CN1; Ala(4-THP) = N[C@@H](CC1CCOCC1)C(=O)O; cisHyp = O=C(O)[C@@H]1C[C@H](O)CN1; d(αMeD) = C[C@@](N)(CC(=O)O)C(=O)O; 4Pal = N[C@@H](Cc1ccncc1)C(=O)O; aThr = C[C@H](O)[C@H](N)C(=O)O; αMeD = C[C@](N)(CC(=O)O)C(=O)O; d(αMeS) = C[C@@](N)(CO)C(=O)O; Dab = NCC[C@H](N)C(=O)O; Aib = CC(C)(N)C(=O)O

T1 sequence (P01584 117-269): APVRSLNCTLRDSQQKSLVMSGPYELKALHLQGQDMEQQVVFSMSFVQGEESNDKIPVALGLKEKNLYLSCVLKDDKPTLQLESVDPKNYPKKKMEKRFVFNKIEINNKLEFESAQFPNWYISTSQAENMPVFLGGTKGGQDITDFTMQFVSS

This experiment has as its target T1, IL-1β (Homo sapiens, UniProt P01584).
T1 construct: purchased BioLegend 579404
The experiment can be described thus: IL-6 assay in MRC5 cells: inhibition of IL-1β induced IL-6 secretion (AlphaLISA). In kind it is cell-based. The following applies: inhibition of IL-1β induced IL-6 secretion in MRC5 cells; read-out: MRC5 IC50. In outline:
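Compound was pre-incubated 1 h at ambient temperature with recombinant human IL-1β at 2λ EC80 before adding human lung fibroblast MRC5 cells (3000/well) in EMEM with 0.025% BSA. After overnight culture at 37 °C, 5% CO2, secreted IL-6 in conditioned medium was measured by AlphaLISA; IC50 from 4-parameter logistic fits.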
A general note: Alpha assays give light when donor and acceptor beads are brought close together.
What is called IC50 is the concentration needed to halve the response being measured. Turning to `C[C@@H](c1c[nH]c2cccc(F)c12)[C@@H]1NC(=O)[C@@H]2C[C@H](F)CN2C(=O)CNC(=O)[C@H](Cc2ccc(C(=O)O)cc2)NC(=O)[C@H](CC23CC(C2)C3)NC(=O)[C@H](Cc2ccc(-c3ccc(C(=O)O)cc3)cc2)NC(=O)[C@H]2C[C@@H](Cc3ccncc3)CN2C(=O)CNC(=O)[C@H](CO)NC(=O)[C@H](CCC(N)=O)NC(=O)[C@H](CN2CCOCC2)NC(=O)C(C)(C)NC(=O)[C@H](Cc2c[nH]c3ccccc23)NC(=O)[C@H](CO)NC(=O)C(C)(C)NC1=O` [Example 179] (cyclo([Bip(4'-COOH)][Ala(1-bicyclo(1.1.1)pentyl)][Phe(4-COOH)]G[Pro(cis-4-F)][Trp(βS-Me,4-F)][Aib]SW[Aib][Ala(morpholin-4-yl)]QSG[dPro(4R-(4-pyridylmethyl))])), the IC50 is 0.029 nM.

Take `C[C@@H](c1c[nH]c2cccc(F)c12)[C@@H]1NC(=O)[C@@H]2C[C@H](F)CN2C(=O)CNC(=O)[C@H](Cc2ccc(C(=O)O)cc2)NC(=O)[C@H](CC23CC(C2)C3)NC(=O)[C@H](Cc2ccc(-c3ccc(C(=O)O)cc3)cc2)NC(=O)[C@H]2C[C@@H](Cc3ccncc3)CN2C(=O)CNC(=O)[C@H](CO)NC(=O)[C@H](CCC(N)=O)NC(=O)[C@H](CC2CCNCC2)NC(=O)C(C)(C)NC(=O)[C@H](Cc2c[nH]c3ccccc23)NC(=O)[C@H](CO)NC(=O)C(C)(C)NC1=O` [Example 180] (cyclo([Bip(4'-COOH)][Ala(1-bicyclo(1.1.1)pentyl)][Phe(4-COOH)]G[Pro(cis-4-F)][Trp(βS-Me,4-F)][Aib]SW[Aib][Ala(piperidin-4-yl)]QSG[dPro(4R-(4-pyridylmethyl))])): the IC50 amounted to 0.027 nM.

Take `C[C@@H](c1c[nH]c2cccc(F)c12)[C@@H]1NC(=O)[C@@H]2C[C@H](F)CN2C(=O)CNC(=O)[C@H](Cc2ccc(C(=O)O)cc2)NC(=O)[C@H](CC23CC(C2)C3)NC(=O)[C@H](Cc2ccc(-c3ccc(C(=O)O)cc3)cc2)NC(=O)[C@H]2C[C@@H](Cc3ccncc3)CN2C(=O)CNC(=O)[C@H](CO)NC(=O)[C@H](CCC(N)=O)NC(=O)[C@H](CC2CCNCC2)NC(=O)[C@@](C)(CO)NC(=O)[C@H](Cc2c[nH]c3ccccc23)NC(=O)[C@H](CO)NC(=O)C(C)(C)NC1=O` [Example 181] (cyclo([Bip(4'-COOH)][Ala(1-bicyclo(1.1.1)pentyl)][Phe(4-COOH)]G[Pro(cis-4-F)][Trp(βS-Me,4-F)][Aib]SW[d(αMeS)][Ala(piperidin-4-yl)]QSG[dPro(4R-(4-pyridylmethyl))])): the IC50 was 0.021 nM.

As to `C[C@H](O)[C@@H]1NC(=O)C(C)(C)NC(=O)[C@H]([C@@H](C)c2c[nH]c3cccc(F)c23)NC(=O)[C@@H]2C[C@H](O)CN2C(=O)CNC(=O)[C@H](Cc2ccc(C(=O)O)cc2)NC(=O)[C@H](CC23CC(C2)C3)NC(=O)[C@H](Cc2ccc(-c3ccc(C(=O)O)cc3)cc2)NC(=O)[C@H]2C[C@@H](Cc3ccncc3)CN2C(=O)CNC(=O)[C@H](CCN)NC(=O)[C@H](CCC(N)=O)NC(=O)[C@H](Cc2cncnc2)NC(=O)[C@@](C)(CC(=O)O)NC(=O)[C@H](Cc2c[nH]c3ccccc23)NC1=O` [Example 182] (cyclo([Bip(4'-COOH)][Ala(1-bicyclo(1.1.1)pentyl)][Phe(4-COOH)]G[cisHyp][Trp(βS-Me,4-F)][Aib][aThr]W[d(αMeD)][Ala(pyrimidin-5-yl)]Q[Dab]G[dPro(4R-(4-pyridylmethyl))])), the IC50 was 0.049 nM.

Regarding `CC(=O)N1CCN(c2ccc(C[C@@H]3NC(=O)[C@H]4C[C@@H](Cc5ccc(F)cc5)CN4C(=O)CNC(=O)[C@H](CCN)NC(=O)[C@H](CCC(N)=O)NC(=O)[C@H](Cc4cncnc4)NC(=O)C(C)(C)NC(=O)[C@H](Cc4c[nH]c5ccccc45)NC(=O)[C@H](CO)NC(=O)C(C)(C)NC(=O)[C@H]([C@@H](C)c4c[nH]c5cccc(F)c45)NC(=O)[C@@H]4C[C@H](F)CN4C(=O)CNC(=O)[C@H](Cc4ccc(C(=O)O)cc4)NC(=O)[C@H](Cc4ccncc4)NC3=O)cc2)CC1` [Example 183] (cyclo([Phe(4-(4-Ac-piperazinyl))][4Pal][Phe(4-COOH)]G[Pro(cis-4-F)][Trp(βS-Me,4-F)][Aib]SW[Aib][Ala(pyrimidin-5-yl)]Q[Dab]G[dPro(4R-Bzl(4-F))])), the IC50 is 0.025 nM.

As to `CC(=O)N1CCN(c2ccc(C[C@@H]3NC(=O)[C@H]4C[C@@H](Cc5ccc(F)cc5)CN4C(=O)CNC(=O)[C@H](CCN)NC(=O)[C@H](CCC(N)=O)NC(=O)[C@H](Cc4cncnc4)NC(=O)[C@](C)(CC(=O)O)NC(=O)[C@H](Cc4c[nH]c5ccccc45)NC(=O)[C@H](CO)NC(=O)C(C)(C)NC(=O)[C@H]([C@@H](C)c4c[nH]c5cccc(F)c45)NC(=O)[C@@H]4C[C@H](F)CN4C(=O)CNC(=O)[C@H](Cc4ccc(C(=O)O)cc4)NC(=O)[C@H](Cc4ccncc4)NC3=O)cc2)CC1` [Example 184] (cyclo([Phe(4-(4-Ac-piperazinyl))][4Pal][Phe(4-COOH)]G[Pro(cis-4-F)][Trp(βS-Me,4-F)][Aib]SW[αMeD][Ala(pyrimidin-5-yl)]Q[Dab]G[dPro(4R-Bzl(4-F))])), the IC50 amounted to 0.014 nM.

With `C[C@@H](c1c[nH]c2cccc(F)c12)[C@@H]1NC(=O)[C@@H]2C[C@H](O)CN2C(=O)CNC(=O)[C@H](Cc2ccc(C(=O)O)cc2)NC(=O)[C@H](CC23CC(C2)C3)NC(=O)[C@H](Cc2ccc(-c3ncc(C(=O)O)cn3)cc2)NC(=O)[C@H]2C[C@@H](Cc3ccncc3)CN2C(=O)CNC(=O)[C@H](CCN)NC(=O)[C@H](CCC(N)=O)NC(=O)[C@H](Cc2cncnc2)NC(=O)C(C)(C)NC(=O)[C@H](Cc2c[nH]c3ccccc23)NC(=O)[C@H](CO)NC(=O)C(C)(C)NC1=O` [Example 185] (cyclo([Phe(4-(5-CO2H-2-pyrimidyl))][Ala(1-bicyclo(1.1.1)pentyl)][Phe(4-COOH)]G[cisHyp][Trp(βS-Me,4-F)][Aib]SW[Aib][Ala(pyrimidin-5-yl)]Q[Dab]G[dPro(4R-(4-pyridylmethyl))])), the IC50 was found to be 0.043 nM.

Take `C[C@@H](c1c[nH]c2cccc(F)c12)[C@@H]1NC(=O)[C@@H]2C[C@H](F)CN2C(=O)CNC(=O)[C@H](Cc2ccc(C(=O)O)cc2)NC(=O)[C@H](Cc2ccncc2)NC(=O)[C@H](Cc2ccc(-c3ncc(C(=O)O)cn3)cc2)NC(=O)[C@H]2C[C@@H](Cc3ccncc3)CN2C(=O)CNC(=O)[C@H](CCN)NC(=O)[C@H](CCC(N)=O)NC(=O)[C@H](Cc2cncnc2)NC(=O)C(C)(C)NC(=O)[C@H](Cc2c[nH]c3ccccc23)NC(=O)[C@H](CO)NC(=O)C(C)(C)NC1=O` [Example 186] (cyclo([Phe(4-(5-CO2H-2-pyrimidyl))][4Pal][Phe(4-COOH)]G[Pro(cis-4-F)][Trp(βS-Me,4-F)][Aib]SW[Aib][Ala(pyrimidin-5-yl)]Q[Dab]G[dPro(4R-(4-pyridylmethyl))])): the IC50 amounted to 0.015 nM.

With `C[C@@H](c1c[nH]c2cccc(F)c12)[C@@H]1NC(=O)[C@@H]2C[C@H](F)CN2C(=O)CNC(=O)[C@H](Cc2ccc(C(=O)O)cc2)NC(=O)[C@H](Cc2ccncc2)NC(=O)[C@H](Cc2ccc(-c3ncc(C(=O)O)cn3)cc2)NC(=O)[C@H]2C[C@@H](Cc3ccncc3)CN2C(=O)CNC(=O)[C@H](CCN)NC(=O)[C@H](CCC(N)=O)NC(=O)[C@H](Cc2cncnc2)NC(=O)[C@](C)(CC(=O)O)NC(=O)[C@H](Cc2c[nH]c3ccccc23)NC(=O)[C@H](CO)NC(=O)C(C)(C)NC1=O` [Example 187] (cyclo([Phe(4-(5-CO2H-2-pyrimidyl))][4Pal][Phe(4-COOH)]G[Pro(cis-4-F)][Trp(βS-Me,4-F)][Aib]SW[αMeD][Ala(pyrimidin-5-yl)]Q[Dab]G[dPro(4R-(4-pyridylmethyl))])), the IC50 turned out to be 0.015 nM.

`C[C@@H](c1c[nH]c2cccc(F)c12)[C@@H]1NC(=O)[C@@H]2C[C@H](F)CN2C(=O)CNC(=O)[C@H](Cc2ccc(C(=O)O)cc2)NC(=O)[C@H](CC23CC(C2)C3)NC(=O)[C@H](Cc2ccc(-c3ncc(C(=O)O)cn3)cc2)NC(=O)[C@H]2C[C@@H](Cc3ccncc3)CN2C(=O)CNC(=O)[C@H](CCN)NC(=O)[C@H](CCC(N)=O)NC(=O)[C@H](Cc2cncnc2)NC(=O)[C@](C)(CC(=O)O)NC(=O)[C@H](Cc2c[nH]c3ccccc23)NC(=O)[C@H](CO)NC(=O)C(C)(C)NC1=O` [Example 188] (cyclo([Phe(4-(5-CO2H-2-pyrimidyl))][Ala(1-bicyclo(1.1.1)pentyl)][Phe(4-COOH)]G[Pro(cis-4-F)][Trp(βS-Me,4-F)][Aib]SW[αMeD][Ala(pyrimidin-5-yl)]Q[Dab]G[dPro(4R-(4-pyridylmethyl))])): the IC50 was 0.02 nM.

For `C[C@@H](c1c[nH]c2cccc(F)c12)[C@@H]1NC(=O)[C@@H]2C[C@H](F)CN2C(=O)CNC(=O)[C@H](Cc2ccc(C(=O)O)cc2)NC(=O)[C@H](Cc2ccncc2)NC(=O)[C@H](Cc2ccc(-c3ccc(C(=O)O)cc3)cc2)NC(=O)[C@H]2C[C@@H](Cc3ccncc3)CN2C(=O)CNC(=O)[C@H](CO)NC(=O)[C@H](CCC(N)=O)NC(=O)[C@H](CC2CCOCC2)NC(=O)[C@](C)(CC(=O)O)NC(=O)[C@H](Cc2c[nH]c3ccccc23)NC(=O)[C@H](CO)NC(=O)C(C)(C)NC1=O` [Example 189] (cyclo([Bip(4'-COOH)][4Pal][Phe(4-COOH)]G[Pro(cis-4-F)][Trp(βS-Me,4-F)][Aib]SW[αMeD][Ala(4-THP)]QSG[dPro(4R-(4-pyridylmethyl))])), the IC50 stood at 0.016 nM.

With `C[C@@H](c1c[nH]c2cccc(F)c12)[C@@H]1NC(=O)[C@@H]2C[C@H](O)CN2C(=O)CNC(=O)[C@H](Cc2ccc(C(=O)O)cc2)NC(=O)[C@H](CC23CC(C2)C3)NC(=O)[C@H](Cc2ccc(-c3ccc(C(=O)O)cc3)cc2)NC(=O)[C@H]2C[C@@H](Cc3ccncc3)CN2C(=O)CNC(=O)[C@H](CCN)NC(=O)[C@H](CCC(N)=O)NC(=O)[C@H](Cc2cncnc2)NC(=O)[C@@](C)(CO)NC(=O)[C@H](Cc2c[nH]c3ccccc23)NC(=O)[C@H](CO)NC(=O)C(C)(C)NC1=O` [Example 190] (cyclo([Bip(4'-COOH)][Ala(1-bicyclo(1.1.1)pentyl)][Phe(4-COOH)]G[cisHyp][Trp(βS-Me,4-F)][Aib]SW[d(αMeS)][Ala(pyrimidin-5-yl)]Q[Dab]G[dPro(4R-(4-pyridylmethyl))])), the IC50 worked out at 0.019 nM.

(Values after patent US20260242419A1, “A CYCLIC PEPTIDE FOR TRAPPING INTERLEUKIN-1 BETA” (Merck Sharp & Dohme LLC, priority 2023, published 2026).)
